The values below come from patent US20160367557A1, “HE[…] ACID DERIVATIVES WHICH ARE USEFUL IN THE TREATMENT, AMELIORATION OR PREVENTION OF A VIRAL DISEASE” (Savira pharmaceuticals GmbH, priority 2012, published 2016).

A value given as a limit tells only on which side of the number the result lay.

The first data set has as its system influenza A virus (IAV) A/Aichi/2/68 (H3N2). The data set is described as follows: Cytopathic effect (CPE) assay. The conditions noted are these: Influenza A virus, H3N2; MDCK cells, 48 hrs. The class given is cell-based.
`O=C(O)c1cn(Cc2ccccc2-c2ccccc2)c2sc(O)nc2c1=O` returned an IC50 of 33 µM.

`COc1ccc(CNc2nc3c(=O)c(C(=O)O)cn(Cc4ccc(Cl)cc4-c4ccccc4)c3s2)cc1`: half-maximal inhibition (IC50) was put at 22 µM.

For `O=C(O)c1cn(Cc2ccccc2-c2ccccc2)c2sc(NCc3ccc(Cl)cc3)nc2c1=O`, the IC50 turned out to be 9.3 µM.

In turn, `COc1ccc(S(=O)(=O)Nc2nc3c(=O)c(C(=O)O)cn(Cc4ccccc4-c4ccccc4)c3s2)cc1` displayed a half-maximal inhibitory concentration (IC50) of 15 µM.

As to `O=C(O)c1cn(Cc2ccccc2-c2ccccc2)c2sc(NCc3ccccc3)nc2c1=O`, the IC50 came out at 19 µM.

Take `CCOC(=O)c1cn(Cc2ccccc2-c2ccccc2)c2sc(NS(=O)(=O)c3ccc(Cl)cc3)nc2c1=O`: the IC50 amounted to 23 µM.

Compound `COc1ccc(CNc2nc3c(=O)c(C(=O)O)cn(Cc4ccccc4-c4ccccc4)c3s2)cc1` showed an IC50 of 11 µM.

The compound `O=C(O)c1cn(Cc2ccccc2-c2ccccc2)c2sc(NS(=O)(=O)Cc3ccc(Cl)cc3Cl)nc2c1=O` yielded an IC50 of 20 µM.

As for `CCOC(=O)c1cn(C(c2ccccc2)c2ccccc2)c2sc(NS(=O)(=O)c3ccc(OC)cc3)nc2c1=O`, the IC50 was found to be 36 µM.

`O=C(O)c1cn(C(c2ccccc2)c2ccccc2)c2sc(NCc3ccccc3)nc2c1=O` came in with an IC50 of 14 µM.

`O=C(O)c1cn(Cc2ccccc2-c2ccccc2)c2sc(NCc3cccc(Cl)c3)nc2c1=O`: it took 12 µM to reach half-maximal inhibition (IC50).

Regarding `O=C(O)c1cn(C(c2ccccc2)c2ccccc2)c2sc(O)nc2c1=O`, the IC50 came out at 47 µM.

As to `O=C(O)c1cn(Cc2ccccc2-c2ccccc2)c2sc(NC3CC3)nc2c1=O`, 31 µM corresponded to half-maximal inhibition (IC50).

`CC(Nc1nc2c(=O)c(C(=O)O)cn(Cc3ccccc3-c3ccccc3)c2s1)c1ccccc1` (centres unmarked) showed an IC50 of 24 µM.

With `COc1ccc(S(=O)(=O)Nc2nc3c(=O)c(C(=O)O)cn(Cc4ccccc4-c4ccc(Cl)cc4)c3s2)cc1`, the IC50 amounted to 8.9 µM.

Consider `O=C(O)c1cn(Cc2ccccc2-c2ccccc2)c2sc(NS(=O)(=O)c3ccc(Cl)cc3F)nc2c1=O`, for which it took 11 µM to reach half-maximal inhibition (IC50).

As to `N#Cc1ccc(S(=O)(=O)Nc2nc3c(=O)c(C(=O)O)cn(Cc4ccccc4-c4ccc(Cl)cc4)c3s2)cc1`, the IC50 was 14 µM.

In turn, `CCOC(=O)c1cn(C(c2ccccc2)c2ccccc2)c2sc(NCc3cccc(Cl)c3)nc2c1=O` returned an IC50 of 27 µM.

Consider `O=C(O)c1cn(C(c2ccccc2)c2ccccc2)c2sc(NCc3cccc(Cl)c3)nc2c1=O`, for which it took 32 µM to reach half-maximal inhibition (IC50).

For `COc1ccc(S(=O)(=O)Nc2nc3c(=O)c(C(=O)O)cn(C(c4ccccc4)c4ccccc4)c3s2)cc1`, it took 31 µM to reach half-maximal inhibition (IC50). This IC50 and that of the compound before are within 1.5-fold of each other.

For the compound `O=C(O)c1cn(Cc2ccccc2-c2ccccc2)c2sc(NS(=O)(=O)c3ccccc3)nc2c1=O`, inhibition was half-maximal at 17 µM (IC50).

`CCOC(=O)c1cn(C(c2ccccc2)c2ccccc2)c2sc(NCc3ccc(Cl)cc3)nc2c1=O` displayed an IC50 of 45 µM.

As for `O=C(O)c1cn(C(c2ccccc2)c2ccccc2)c2sc(NS(=O)(=O)c3ccc(Cl)cc3F)nc2c1=O`, 26 µM corresponded to half-maximal inhibition (IC50).

Take `O=C(O)c1cn(Cc2ccc(Cl)cc2-c2ccccc2)c2sc(O)nc2c1=O`: the IC50 came to 18 µM.

Turning to `O=C(O)c1cn(Cc2ccccc2-c2ccccc2)c2sc(NS(=O)(=O)c3cccc(F)c3)nc2c1=O`, 19 µM corresponded to half-maximal inhibition (IC50). This IC50 and that of the compound before are within 1.5-fold of each other.

The same data set, now with this note: MDCK cells, 48 hrs.
Turning to `O=C(O)c1cn(Cc2ccccc2-c2ccccc2)c2scnc2c1=O`, the “CPE activity in words” value was “inactive”.

Regarding `O=C(O)c1c[nH]c2ccnn2c1=O` [drawing 207], the “CPE activity in words” value was “inactive”.

For the compound `COCCNc1nc2c(=O)c(C(=O)O)cn(Cc3ccccc3-c3ccccc3)c2s1`, the “CPE activity in words” value was “inactive”.

With `O=C(O)c1cn(CCc2cccc(F)c2)c2cc(C3CC3)nn2c1=O` [drawing 216], the “CPE activity in words” value is “inactive”.

Turning to `Nc1cc2n(S(=O)(=O)c3ccccc3)cc(C(=O)O)c(=O)n2n1`, the “CPE activity in words” value is “inactive”.

Consider `CC(C)Nc1nc2c(=O)c(C(=O)O)cn(Cc3ccccc3-c3ccccc3)c2s1`, for which the “CPE activity in words” value was “inactive”.

For `O=C(O)c1c[nH]c2nc(NCc3ccccc3)nn2c1=O` [drawing 211], the “CPE activity in words” value is “inactive”.

With `Nc1cc2n(C(=O)C3(c4ccccc4)CCCC3)cc(C(=O)O)c(=O)n2n1` [drawing 213], the “CPE activity in words” value was “inactive”.

Consider `CC(C)c1cc2n(CCCc3ccccc3)cc(C(=O)O)c(=O)n2n1`, for which the “CPE activity in words” value is “inactive”.

In the case of `COc1ccc(CCn2cc(C(=O)O)c(=O)n3nc(C4CC4)cc23)cc1` [drawing 223], the “CPE activity in words” value is “inactive”.

As to `O=C(O)c1cn(CCc2cccc(C(F)(F)F)c2)c2cc(C3CC3)nn2c1=O` [drawing 221], the “CPE activity in words” value is “inactive”.

On to `CNc1nc2c(=O)c(C(=O)O)cn(Cc3ccccc3-c3ccccc3)c2s1`, for which the “CPE activity in words” value was “inactive”.

Regarding `Nc1cc2n(Cc3ccccc3-c3ccccc3)cc(C(=O)O)c(=O)n2n1`, the “CPE activity in words” value is “inactive”.

Turning to `Nc1cc2n(S(=O)(=O)Cc3ccccc3)cc(C(=O)O)c(=O)n2n1`, the “CPE activity in words” value is “inactive”.

For `O=C(O)c1cn(Cc2ccccc2-c2ccccc2)c2ccnn2c1=O`, the “CPE activity in words” value was “inactive”.

As to `CS(=O)(=O)Nc1nc2c(=O)c(C(=O)O)cn(Cc3ccccc3-c3ccccc3)c2s1`, the “CPE activity in words” value was “inactive”.

As for `O=C(O)c1cn(CCc2cccc(Cl)c2)c2cc(C3CC3)nn2c1=O` [drawing 215], the “CPE activity in words” value was “inactive”.

Regarding `CS(=O)(=O)n1cc(C(=O)O)c(=O)n2nc(N)cc12`, the “CPE activity in words” value was “inactive”.

Turning to `O=C(O)c1cn(CCc2ccccc2)c2cc(C3CCCC3)nn2c1=O` [drawing 218], the “CPE activity in words” value is “inactive”.

Take `CCOC(=O)c1cn(CCc2ccc(O)cc2)c2cc(C3CC3)nn2c1=O` [drawing 220]: the “CPE activity in words” value is “inactive”.

With `O=C(O)c1cn(CCc2ccc(O)cc2)c2cc(C3CC3)nn2c1=O` [drawing 222], the “CPE activity in words” value was “inactive”.

Turning to `CC(C)c1cc2[nH]cc(C(=O)O)c(=O)n2n1`, the “CPE activity in words” value is “inactive”.

For `O=C(O)c1c[nH]c2cc(C3CCCC3)nn2c1=O`, the “CPE activity in words” value was “inactive”.

In the case of `Nc1nc2c(=O)c(C(=O)O)cn(Cc3ccccc3-c3ccccc3)c2s1`, the “CPE activity in words” value is “inactive”.

Turning to `O=C(O)c1cn(Cc2ccccc2-c2ccccc2)c2sc(N3CCOCC3)nc2c1=O`, the “CPE activity in words” value was “inactive”.

System in another data set: not given
Assay: not given
Details: not given
Regarding `CCOC(=O)c1cn(CCc2ccc(OC)cc2)c2cc(C3CC3)nn2c1=O`, the melting point fell in the range of 160 to 165 °C.

`CCOC(=O)c1c[nH]c2nc(Nc3ccc(NC(C)=O)cc3)nn2c1=O` showed a melting point of more than 330 °C.

`COc1ccc(CCn2cc(C(=O)O)c(=O)n3nc(C4CC4)cc23)cc1` displayed a melting point of 145 to 150 °C.

In the case of `CCOC(=O)c1c[nH]c2c(C#N)c(CCCNC)nn2c1=O`, the melting point is 285 to 287 °C.

Compound `O=C(O)c1c[nH]c2cc(C3CC3)nn2c1=O` showed a melting point of 275 to 278 °C.

As for `O=C(O)c1cn(CCCc2ccccc2)c2cc(C3CC3)nn2c1=O`, the melting point fell in the range of 95 to 100 °C.

In turn, `CCOC(=O)c1c[nH]c2cc(C(=O)NCc3ccccc3)nn2c1=O` gave a melting point of 290 to 292 °C.

Turning to `CCOC(=O)c1cn(CCc2ccccc2)c2cc(C(C)C)nn2c1=O`, the melting point lay within 130 to 135 °C.

As for `CCOC(=O)c1cn(CCc2ccccc2)c2cc(C3CCCC3)nn2c1=O`, the melting point lay in the range of 162 to 164 °C.

With `O=C(O)c1cn(CCc2cccc(F)c2)c2cc(C3CC3)nn2c1=O`, the melting point was 220 to 225 °C.

For the compound `O=C(O)c1cn(CCc2cccc(Cl)c2)c2cc(C3CC3)nn2c1=O`, the melting point lay in the range of 230 to 235 °C.

Turning to `O=C(O)c1cn(CCc2ccc(Cl)cc2)c2cc(C3CC3)nn2c1=O`, the melting point is 220 to 225 °C.

For the compound `O=C(NCCc1ccc(Cl)cc1)c1cc2[nH]cc(C(=O)O)c(=O)n2n1`, the melting point was more than 300 °C.

Compound `CCOC(=O)c1cn(CCc2ccc(O)cc2)c2cc(C3CC3)nn2c1=O` yielded a melting point of 95 to 100 °C.

As to `CCOC(=O)c1c[nH]c2nc(NCc3ccc(Br)cc3)nn2c1=O`, the melting point was 286 to 287 °C.

Regarding `CCOC(=O)c1cn(Cc2ccccc2)c2cc(C3CCCC3)nn2c1=O`, the melting point lay within 148 to 150 °C.

In the case of `CCOC(=O)Cc1c[nH]c2cc(-c3ccccc3)nn2c1=O`, the melting point fell in the range of 245 to 250 °C.

With `CCOC(=O)Cc1c[nH]c2nc(Nc3ccccc3)nn2c1=O`, the melting point is 255 to 257 °C.

Compound `CCOC(=O)Cc1cn(C)c2cc(C3CC3)nn2c1=O` showed a melting point of 147 to 150 °C.

As for `CCOC(=O)c1cn(CCc2ccccc2)c2cc(C3CC3)nn2c1=O`, the melting point fell in the range of 155 to 160 °C.

In turn, `CCOC(=O)c1c[nH]c2cc(C(=O)NCCc3ccc(Cl)cc3)nn2c1=O` came in with a melting point of more than 300 °C.

The compound `O=C(O)c1cn(CCc2cccc(C(F)(F)F)c2)c2cc(C3CC3)nn2c1=O` displayed a melting point of 200 to 205 °C.

For the compound `CCOC(=O)c1cn(CCCc2ccccc2)c2cc(C3CC3)nn2c1=O`, the melting point was in the range of 150 to 155 °C.

`O=C(O)c1cn(CCc2ccc(C(F)(F)F)cc2)c2cc(C3CC3)nn2c1=O`: the melting point lay within 225 to 230 °C.

Turning to `CCOC(=O)c1cn(CCc2cccc(Cl)c2)c2cc(C3CC3)nn2c1=O`, the melting point was 160 to 165 °C.

As for `O=C(O)c1cn(Cc2ccccc2)c2cc(C3CC3)nn2c1=O`, the melting point lay within 210 to 215 °C.

`O=C(O)c1c[nH]c2nc(NCc3ccccc3)nn2c1=O`: the melting point is 240 to 245 °C.

As for `O=C(O)c1c[nH]c2nc(NCc3cccc4ccccc34)nn2c1=O`, the melting point lay within 245 to 250 °C.

In turn, `CC(C)c1cc2n(CCc3ccccc3)cc(C(=O)O)c(=O)n2n1` came in with a melting point of 220 to 225 °C.

`CCOC(=O)c1cn(CCc2cccc(F)c2)c2cc(C3CC3)nn2c1=O` yielded a melting point of 160 to 165 °C.

For `O=C(O)c1cn(CCc2ccccc2)c2cc(C3CC3)nn2c1=O`, the melting point was in the range of 185 to 190 °C.

The compound `CCOC(=O)c1cn(CCc2ccc(Cl)cc2)c2cc(C3CC3)nn2c1=O` displayed a melting point of 190 to 195 °C.

In the case of `O=C(O)c1cn(CCc2ccccc2)c2cc(C3CCCC3)nn2c1=O`, the melting point was in the range of 198 to 200 °C.
